Usually EC50 stands for the concentration that produces a half-maximal response.

28 compounds from US20250333406A1, “SULFONYL CYCLIC DERIVATIVES, AND COMPOSITIONS AND METHODS THEREOF” (Lysoway Therapeutics, Inc., priority 2023, published 2025) can be followed below.

This test relates to TFEB. Briefly: TFEB Nuclear Translocation Assay. The format is cell-based. Particulars: read-out: EC50 of TFEB activation.
For `CC(C)S(=O)(=O)c1ccc(S(=O)(=O)n2nc(N3CCN(c4ncc(F)cc4F)CC34CC4)c3c(Cl)cccc32)s1` [Compound 45, 4-chloro-3-[7-(3,5-difluoro-2-pyridyl)-4,7-diazaspiro [2.5]octan-4-yl]-1-[(5-isopropylsulfonyl-2-thienyl)sulfonyl]indazole], the EC50 was at most 1000 nM.
The same measure for `CC(C)S(=O)(=O)c1ccc(S(=O)(=O)n2nc(N3CCN(c4ncc(Cl)s4)CC34CC4)c3c(Cl)cccc32)s1` [Compound 46, 5-chloro-2-[4-[4-chloro-1-[(5-isopropylsulfonyl-2-thienyl)sulfonyl]indazol-3-yl]-4,7-diazaspiro [2.5]octan-7-yl]thiazole]: at most 1000 nM.
In the case of `CC(C)S(=O)(=O)c1ccc(S(=O)(=O)n2nc(N3CCN(c4ccc(Cl)cn4)CC34CC4)c3c(Cl)cccc32)s1` [Compound 47, 4-chloro-3-[7-(5-chloro-2-pyridyl)-4,7-diazaspiro[2.5]octan-4-yl]-1-[(5-isopropylsulfonyl-2-thienyl)sulfonyl]indazole] it was at most 1000 nM; in that of `CC(C)(C)S(=O)(=O)c1ccc(S(=O)(=O)n2nc(N3CCN(c4ccc(F)cn4)CC34CC4)c3c(Cl)cccc32)s1` [Compound 48, 1-[(5-tert-butylsulfonyl-2-thienyl)sulfonyl]-4-chloro-3-[7-(5-fluoro-2-pyridyl)-4,7-diazaspiro [2.5]octan-4-yl]indazole], at most 1000 nM.
In the case of `CC(C)(C)S(=O)(=O)c1ccc(S(=O)(=O)n2nc(N3CCN(c4ncc(F)cn4)CC34CC4)c3c(Cl)cccc32)s1` [Compound 49, 1-((5-(tert-butylsulfonyl)thiophen-2-yl)sulfonyl)-4-chloro-3-(7-(5-fluoropyrimidin-2-yl)-4,7-diazaspiro [2.5]octan-4-yl)-1H-indazole] it was at most 1000 nM; in that of `CC(C)S(=O)(=O)c1ccc(S(=O)(=O)n2nc(N3CCN(c4ncc(F)cn4)CC3C3CC3)c3c(Cl)cccc32)cc1` (stereo not shown) [Compound 50, 4-chloro-3-(2-cyclopropyl-4-(5-fluoropyrimidin-2-yl)piperazin-1-yl)-1-((4-(isopropylsulfonyl)phenyl)sulfonyl)-1H-indazole], at most 1000 nM.
As for `CC(C)S(=O)(=O)c1ccc(S(=O)(=O)n2nc(N3CCN(c4ncc(F)cn4)CC3C3CC3)c3c(Cl)cc(F)cc32)cc1` (stereo not shown) [Compound 51, 4-chloro-3-(2-cyclopropyl-4-(5-fluoropyrimidin-2-yl)piperazin-1-yl)-6-fluoro-1-((4-(isopropylsulfonyl)phenyl)sulfonyl)-1H-indazole], the concentration giving a half-maximal response (EC50) was at most 1000 nM.
In the case of `O=S(=O)(c1ccc(S(=O)(=O)C(F)(F)F)cc1)n1nc(N2CCN(c3ncc(F)cn3)CC23CC3)c2c(Cl)cccc21` [Compound 52, 4-chloro-3-(7-(5-fluoropyrimidin-2-yl)-4,7-diazaspiro [2.5]octan-4-yl)-1-((4-((trifluoromethyl)sulfonyl)phenyl)sulfonyl)-1H-indazole] it was at most 1000 nM.
In the case of `CC(C)S(=O)(=O)c1ccc(S(=O)(=O)n2nc(N3CCC(F)(F)CC34CC4)c3c(Cl)cccc32)cc1` [Compound 53, 4-chloro-3-(7,7-difluoro-4-azaspiro [2.5]octan-4-yl)-1-(4-isopropylsulfonylphenyl) sulfonyl-indazole] it was at most 1000 nM; in that of `CC(C)S(=O)(=O)c1ccc(S(=O)(=O)n2nc(N3CCC(Cl)(Cl)CC34CC4)c3c(Cl)cccc32)cc1` [Compound 54, 4-chloro-3-(7,7-dichloro-4-azaspiro [2.5]octan-4-yl)-1-(4-isopropylsulfonylphenyl) sulfonyl-indazole], at most 1000 nM.
In the case of `CC(C)S(=O)(=O)c1ccc(S(=O)(=O)n2nc(N3CCN(C(=O)C(F)(F)F)CC34CC4)c3c(Cl)cccc32)cc1` [Compound 55, 1-[4-[4-chloro-1-(4-isopropylsulfonylphenyl)sulfonyl-indazol-3-yl]-4,7-diazaspiro [2.5]octan-7-yl]-2,2,2-trifluoro-ethanone] it was at most 1000 nM; in that of `CC(=O)N1CCN(c2nn(S(=O)(=O)c3ccc(S(=O)(=O)C(C)C)cc3)c3cccc(Cl)c23)C2(CC2)C1` [Compound 56, 1-[4-[4-chloro-1-(4-isopropylsulfonylphenyl)sulfonyl-indazol-3-yl]-4,7-diazaspiro[2.5]octan-7-yl]ethanone], at most 1000 nM; in that of `CC(C)S(=O)(=O)c1ccc(S(=O)(=O)n2nc(N3CCN(C(=O)C4CC4)CC34CC4)c3c(Cl)cccc32)cc1` [Compound 57, [4-[4-chloro-1-(4-isopropylsulfonylphenyl)sulfonyl-indazol-3-yl]-4,7-diazaspiro[2.5]octan-7-yl]-cyclopropyl-methanone], at most 1000 nM.
As to `CC(C)S(=N)(=O)c1ccc(S(=O)(=O)n2nc(N3CCN(c4ncc(F)cn4)CC34CC4)c3c(Cl)cccc32)cc1` (stereo not shown) [Compound 58, [4-[4-chloro-3-[7-(5-fluoropyrimidin-2-yl)-4,7-diazaspiro [2.5]octan-4-yl]indazol-1-yl]sulfonylphenyl]-imino-isopropyl-oxo-λ6-sulfane], the EC50 is at most 1000 nM.
In the case of `CC(C)S(=O)(=O)n1ccc(S(=O)(=O)n2nc(N3CCN(CC(F)(F)F)CC34CC4)c3c(Cl)cc(F)cc32)c1` [Compound 59, 4-chloro-6-fluoro-1-(1-isopropylsulfonylpyrrol-3-yl)sulfonyl-3-[7-(2,2,2-trifluoroethyl)-4,7-diazaspiro[2.5]octan-4-yl]indazole] it was at most 1000 nM; in that of `CC(C)S(=O)(=O)c1ccc(S(=O)(=O)n2nc(N3CCN(c4ncc(F)cn4)C[C@@H]3C3CC3)c3c(Cl)cccc32)cc1` [Compound 60, (S)-4-chloro-3-(2-cyclopropyl-4-(5-fluoropyrimidin-2-yl)piperazin-1-yl)-1-((4-(isopropylsulfonyl)phenyl)sulfonyl)-1H-indazole], at most 1000 nM.
The same measure for `CC(C)S(=O)(=O)c1ccc(S(=O)(=O)n2nc(N3CCN(c4ncc(F)cn4)CC34CC4)c3c(Cl)cccc32)cc1F` [Compound 62, 4-chloro-1-(3-fluoro-4-isopropylsulfonyl-phenyl) sulfonyl-3-[7-(5-fluoropyrimidin-2-yl)-4,7-diazaspiro [2.5]octan-4-yl]indazole]: at most 1000 nM.
On to `CC(C)S(=O)(=O)c1ccc(S(=O)(=O)n2nc(N3CCCCC3C3CC3)c3c(Cl)cccc32)cc1` (stereo not shown) [Compound 63, 4-chloro-3-(2-cyclopropyl-1-piperidyl)-1-(4-isopropylsulfonylphenyl) sulfonyl-indazole], for which the 50% effective concentration (EC50) was at most 1000 nM.
In the case of `[2H]c1c([2H])c(S(=O)(=O)n2nc(N3CCN(c4ncc(F)cn4)CC34CC4)c3c(Cl)cccc32)c([2H])c([2H])c1S(=O)(=O)C(C)C` [Compound 64, 4-chloro-3-[7-(5-fluoropyrimidin-2-yl)-4,7-diazaspiro [2.5]octan-4-yl]-1-(2,3,5,6-tetradeuterio-4-isopropylsulfonyl-phenyl) sulfonyl-indazole] it was at most 1000 nM.
The same measure for `CC(C)S(=O)(=O)c1ccc(S(=O)(=O)n2nc(N3CCN(c4ncccn4)CC34CC4)c3c(Cl)cccc32)cc1` [Compound 65, 4-chloro-1-(4-isopropylsulfonylphenyl) sulfonyl-3-(7-pyrimidin-2-yl-4,7-diazaspiro[2.5]octan-4-yl) indazole]: at most 1000 nM.
In the case of `CC(C)S(=O)(=O)c1ccc(S(=O)(=O)n2nc(N3CCCCC3C(F)(F)F)c3c(Cl)cccc32)cc1` (stereo not shown) [Compound 66, 4-chloro-1-(4-isopropylsulfonylphenyl)sulfonyl-3-[2-(trifluoromethyl)-1-piperidyl]indazole] it was at most 1000 nM.
Turning to `CC(C)S(=O)(=O)c1ccc(S(=O)(=O)n2nc(N3CCN(c4ncc(F)cn4)CC3C(F)(F)F)c3c(Cl)cccc32)cc1` (stereo not shown) [Compound 67, 4-chloro-3-[4-(5-fluoropyrimidin-2-yl)-2-(trifluoromethyl)piperazin-1-yl]-1-(4-isopropylsulfonylphenyl) sulfonyl-indazole], the EC50 is at most 1000 nM.
In the case of `CC(C)S(=O)(=O)c1ccc(S(=O)(=O)n2nc(N3CCN(c4ncc(F)cn4)C[C@@H]3C(F)(F)F)c3c(Cl)cccc32)cc1` [Compound 68, 4-chloro-3-[(2R)-4-(5-fluoropyrimidin-2-yl)-2-(trifluoromethyl)piperazin-1-yl]-1-(4-isopropylsulfonylphenyl) sulfonyl-indazole] it was at most 1000 nM; in that of `CC(C)S(=O)(=O)c1ccc(S(=O)(=O)n2nc(N3CCN(C(=O)C(F)(F)F)C[C@@H]3C(F)(F)F)c3c(Cl)cccc32)cc1` [Compound 70, 1-[(3R)-4-[4-chloro-1-(4-isopropylsulfonylphenyl)sulfonyl-indazol-3-yl]-3-(trifluoromethyl)piperazin-1-yl]-2,2,2-trifluoro-ethanone], at most 1000 nM; in that of `CC(C)S(=O)(=O)c1ccc(S(=O)(=O)n2nc(N3CCN(c4ncc(F)cn4)C[C@@H]3C(F)(F)F)c3c(F)cccc32)cc1` [Compound 72, 4-fluoro-3-[(2R)-4-(5-fluoropyrimidin-2-yl)-2-(trifluoromethyl)piperazin-1-yl]-1-(4-isopropylsulfonylphenyl)sulfonyl-indazole], at most 1000 nM.
In the case of `CC(C)S(=O)(=O)c1ccc(S(=O)(=O)n2nc(N3CCN(C(=O)C(F)F)CC3C(F)(F)F)c3c(Cl)cccc32)cc1` (stereo not shown) [Compound 74, 1-[4-[4-chloro-1-(4-isopropylsulfonylphenyl)sulfonyl-indazol-3-yl]-3-(trifluoromethyl)piperazin-1-yl]-2,2-difluoro-ethanone] it was at most 1000 nM.
In the case of `CC(C)S(=O)(=O)c1ccc(S(=O)(=O)n2nc(N3CCN(CC(F)(F)F)CC3C(F)(F)F)c3c(Cl)cccc32)cc1` (stereo not shown) [Compound 75, 4-chloro-1-(4-isopropylsulfonylphenyl)sulfonyl-3-[4-(2,2,2-trifluoroethyl)-2-(trifluoromethyl)piperazin-1-yl]indazole] it was at most 1000 nM.
Turning to `O=C(N1CCN(c2nn(S(=O)(=O)c3ccc(C(F)F)cc3)c3cccc(Cl)c23)C(C(F)(F)F)C1)C(F)(F)F` (stereo not shown) [Compound 76, 1-[4-[4-chloro-1-[4-(difluoromethyl)phenyl]sulfonyl-indazol-3-yl]-3-(trifluoromethyl)piperazin-1-yl]-2,2,2-trifluoro-ethanone], the EC50 is at most 1000 nM.
